In assay [1] the target is T1, cloned human glucagon receptor (Homo sapiens, UniProt P47871).
T1 construct: expressed in transfected cells; plasma membrane preparation
As to the kind of experiment: Glucagon Binding Assay (I). Conditions: for IC50: plasma membranes of BHK cells expressing the receptor, 125I-glucagon tracer, read-out: Glu Bd Assay (I) IC50. On the procedure: Binding of compounds to the glucagon receptor was determined in a competition binding assay using the cloned human glucagon receptor.
Receptor binding was assayed using cloned human receptor (Lok et al., Gene 140, 203-209 (1994)). The receptor inserted in the pLJ6′ expression vector using EcoRI/SSt1 restriction sites (Lok et al.) was expressed in a baby hamster kidney cell line (A3 BHK 570-25).
Plasma membranes were prepared by growing cells to confluence, detaching them from the surface and resuspending the cells in cold buffer (10 mM tris/HCl, pH 7.4 containing 30 mM NaCl, 1 mM dithiothreitol, 5 mg/L leupeptin (Sigma), 5 mg/L pepstatin (Sigma), 100 mg/L bacitracin (Sigma) and 15 mg/L recombinant aprotinin (Novo Nordisk A/S)), homogenization by two 10-s bursts using a Polytron PT 10-35 homogenizer (Kinematica), and centrifugation upon a layer of 41 w/v % sucrose at 95.000×g for 75 min. The white band located between the two layers was diluted in buffer and centrifuged at 40.000×g for 45 min. The precipitate containing the plasma membranes was suspended in buffer and stored at −80° C. until use. Glucagon was iodinated according to the chloramine T method (Hunter and Greenwood, Nature 194, 495 (1962)) and purified using anion exchange chromatography (Jørgensen et al., Hormone and Metab. Res. 4, 223-224 (1972). The specific activity was 460 μCi/μg on the day of iodination. Tracer was stored at −18° C. in aliquots and were used immediately after thawing.
Binding assays were carried out in triplicate in filter microtiter plates (MADV N65, Millipore). The buffer used in this assay was 50 mM HEPES, 5 mM EGTA, 5 mM MgCl2, 0.005% tween 20, pH 7.4. Glucagon was dissolved in 0.05 M HCl, added an equal amount (w/w) of HSA and freeze-dried. On the day of use, it was dissolved in water and diluted in buffer to the desired concentrations.
Test compounds were dissolved and diluted in DMSO. 140 μL buffer, 25 μL glucagon or buffer, and 10 μL DMSO or test compound were added to each well. Tracer (50.000 cpm) was diluted in buffer and 25 μL were added to each well. 1-4 μg freshly thawed plasma membrane protein diluted in buffer was then added in aliquots of 25 μL to each well. Plates were incubated at 30° C. for 2 hours. Non-specific binding was determined with 10^−6 M of glucagon. Bound tracer and unbound tracer were then separated by vacuum filtration (Millipore vacuum manifold). The plates were washed with 2×100 μL buffer/well. The plates were air dried for a couple of hours, whereupon the filters were separated from the plates using a Millipore Puncher. The filters were counted in a gamma counter.

In assay [2] the target is T1, cloned human glucagon receptor. As to the kind of experiment: Glucagon Binding Assay (II).
The target in assay [3] is T2, human glucagon receptor (Homo sapiens, UniProt P47871).
T2 construct: expressed in transfected cells; host or cells: BHK (baby hamster kidney) cells
As to the kind of experiment: Glucagon Binding Assay (III). Conditions: BHK cell membranes, WGA SPA beads, 125I-glucagon; read-out: Glu Bd Assay (III) IC50. The method, boiled down:
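Membranes from BHK cells transfected with the human receptor, prepared at 4 °C, were used in a WGA-bead scintillation proximity binding format. Plates were shaken for 4 hours, left to settle 8–48 hours and then counted. Non-specific binding was defined with 500 nM glucagon.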

Where [4] appears, read: plasma membranes of BHK cells expressing the receptor, read-out: Glu Bd Assay (II) IC50.

This is an account of results in patent US6875760B2 (Novo Nordisk A/S, priority 1999, dated 2005).

SMILES strings stand for the structures.

T2 sequence (P47871 26-477): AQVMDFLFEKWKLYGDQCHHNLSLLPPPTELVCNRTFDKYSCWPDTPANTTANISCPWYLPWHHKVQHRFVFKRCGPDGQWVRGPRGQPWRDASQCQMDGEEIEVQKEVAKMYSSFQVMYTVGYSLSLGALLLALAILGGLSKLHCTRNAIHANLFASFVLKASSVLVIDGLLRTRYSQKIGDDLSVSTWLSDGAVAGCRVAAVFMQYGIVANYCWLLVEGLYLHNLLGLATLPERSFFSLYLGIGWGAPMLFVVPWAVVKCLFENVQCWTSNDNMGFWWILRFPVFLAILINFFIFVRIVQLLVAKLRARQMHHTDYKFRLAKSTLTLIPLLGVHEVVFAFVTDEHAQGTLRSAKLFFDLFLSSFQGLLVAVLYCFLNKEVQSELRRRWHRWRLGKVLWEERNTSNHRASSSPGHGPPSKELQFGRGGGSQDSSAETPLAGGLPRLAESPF
T1 sequence (P47871 26-477): as above

What is called IC50 is the concentration that inhibits the measured activity by half. For `O=C(O)CCNC(=O)c1ccc(CN(C(=O)Nc2ccc(OC(F)(F)F)cc2)C2CCCCC2)cc1`, in assay [1], the IC50 came to 2700 nM.
The same measure, in the same setting: the same measure for `COC(C)(C)C1CCC(N(Cc2ccc(C(=O)NCCC(=O)O)cc2)C(=O)Nc2ccc(OC(F)(F)F)cc2)CC1` (stereo not drawn): 1280 nM; for `O=C(O)CCNC(=O)c1ccc(CN(C(=O)Nc2cc(Cl)cc(Cl)c2)C2CCC3(CC2)SCCS3)cc1`: 1340 nM.
Turning to `O=C(O)CCNC(=O)c1ccc(CN(CC(c2ccccc2)c2ccccc2)C(=O)c2csc3ccc(Cl)cc23)cc1` [Example 1, 3-(4-{[N-(5-Chlorobenzo[b]thiophen-3-carbonyl)-N-(2,2-diphenylethyl)amino]methyl}benzoylamino)propionic acid], the IC50 in assay [1] is 120 nM.
On the same count and under the same terms, as for `O=C(O)CCNC(=O)c1ccc(CN(CCc2ccc(Cl)c(Cl)c2)C(=O)c2csc3ccc(Cl)cc23)cc1` [Example 2, 3-(4-{[N-(5-Chlorobenzo[b]thiophen-3-carbonyl)-N-(3,4-dichlorophenylethyl)amino]methyl}benzoylamino)propionic acid], the figure is 1300 nM.
In the case of `CC(C)(C)C1CCC(N(Cc2ccc(C(=O)NCCC(=O)O)cc2)C(=O)Cc2csc3ccccc23)CC1` (stereo not drawn) [Example 3, 3-(4-{[N-(2-Benzo[b]thiophen-3-yl-acetyl)-N-(4-tert-butylcyclohexyl)amino]methyl}benzoylamino)propionic acid], in assay [1], the “Glu Bd Assay (I) Effect, 100-Residual binding (%) at 1 μM” value is listed as 26.2%.
In the case of `CC(C)(C)C1CCC(N(Cc2ccc(C(=O)NCCC(=O)O)cc2)C(=O)c2cc3ccccc3s2)CC1` (stereo not drawn) [Example 4, 3-(4-{[N-(Benzo[b]thiophen-2-carbonyl)-N-(4-tert-butylcyclohexyl)amino]methyl}benzoylamino)propionic acid], in assay [1], the “Glu Bd Assay (I) Effect, 100-Residual binding (%) at 1 μM” value is on record as 28.5%.
For `CCCCC(CC)CN(Cc1ccc(C(=O)NCCC(=O)O)cc1)C(=O)/C=C/c1c(Cl)cccc1Cl` (stereo not drawn) [Example 5, 3-(4-{[N-[3-(2,6-Dichlorophenyl)acryloyl]-N-(2-ethylhexyl)amino]methyl}benzoylamino)propionic acid], in assay [1], the “Glu Bd Assay (I) Effect, 100-Residual binding (%) at 1 μM” value is reported as 31.1% and the IC50 amounted to 800 nM.
Taken in the same sequence, the figures for `CC(C)(C)c1ccc(CN(Cc2ccc(C(=O)NCCC(=O)O)cc2)C(=O)/C=C/c2c(Cl)cccc2Cl)cc1` [Example 6, 3-(4-{[N-[3-(2,6-Dichlorophenyl)acryloyl]-N-(4-tert-butylbenzyl)amino]methyl}benzoylamino)propionic acid] were 29.5% and 1200 nM.
Regarding `CC(C)(C)c1ccc(CN(Cc2ccc(C(=O)NCCC(=O)O)cc2)C(=O)c2cc3ccccc3s2)cc1` [Example 7, 3-(4-{[N-(Benzo[b]thiophen-2-carbonyl)-N-(4-tert-butylbenzyl)amino]methyl}benzoylamino)propionic acid], in assay [1], the “Glu Bd Assay (I) Effect, 100-Residual binding (%) at 1 μM” value is 30.4% and the IC50 worked out at 845 nM.
For `O=C(O)CCNC(=O)c1ccc(CN(CCC(c2ccccc2)c2ccccc2)C(=O)c2ccc(Cl)cc2)cc1` [Example 8, 3-(4-{[N-(4-Chlorobenzoyl)-N-(3,3-diphenylpropyl)amino]methyl}benzoylamino)propionic acid] the same measures were 37.8% and 675 nM.
For `O=C(O)CCNC(=O)c1cccc(CN(CC(c2ccccc2)c2ccccc2)C(=O)c2csc3ccc(Cl)cc23)c1` [Example 9, 3-(3-{[N-(5-Chlorobenzo[b]thiophene-3-carbonyl)-N-(2,2-diphenylethyl)amino]methyl}benzoylamino)propionic acid], the “Glu Bd Assay (I) Effect, 100-Residual binding (%)” value in assay [1] (at 500 nM) is on record as 56.4% (at 500.
Regarding `CCCCC(CC)CN(Cc1ccc(C(=O)NCCC(=O)O)cc1)C(=O)Nc1ccc(-c2ccccc2)cc1` (stereo not drawn) [Example 10, 3-{4-[3-Biphenyl-4-yl-1-(2-ethylhexyl)ureidomethyl]benzoylamino}propionic acid], in assay [1], the IC50 turned out to be 42 nM.
Still for that read-out and setting: as for `CC(C)(C)C1CCC(N(Cc2ccc(C(=O)NCCC(=O)O)cc2)C(=O)Nc2ccc(OC(F)(F)F)cc2)CC1` (stereo not drawn) [Example 11, 3-{4-[1-(4-tert-Butylcyclohexyl)-3-(4-trifluoromethoxyphenyl)ureidomethyl]benzoylamino}propionic acid], the figure is 27 nM; as for `CC(C)(C)C1CCC(N(Cc2ccc(C(=O)NCCC(=O)O)cc2)C(=O)Nc2ccc(-c3ccccc3)cc2)CC1` (stereo not drawn) [Example 12, 3-{4-[3-Biphenyl-4-yl-1-(4-tert-butylcyclohexyl)ureidomethyl]benzoylamino}propionic acid], 20 nM.
Regarding `CC(C)(C)C1CCC(N(Cc2ccc(C(=O)NCCC(=O)O)cc2)C(=O)Nc2cccc(C(F)(F)F)c2)CC1` (stereo not drawn) [Example 13, 3-{4-[1-(4-tert-Butylcyclohexyl)-3-(3-trifluoromethylphenyl)ureidomethyl]benzoylamino}propionic acid], in assay [1], the IC50 stood at 78 nM.
As for `O=C(O)CCNC(=O)c1ccc(CN(C(=O)Nc2ccc(OC(F)(F)F)cc2)c2ccc(C3CCCCC3)cc2)cc1` [Example 179, 3-{4-[1-(4-Cyclohexylphenyl)-3-(4-trifluoromethoxyphenyl)ureidomethyl]benzoylamino}propionic acid], the IC50 in assay [2] (setting [4]) was 33 nM; in assay [3], 51 nM.
Take `O=C(O)CCNC(=O)c1ccc(CN(C(=O)Nc2cc(Cl)cc(Cl)c2)c2ccc(C3CCCCC3)cc2)cc1` [Example 232, 3-{4-[1-(4-Cyclohexylphenyl)-3-(3,5-dichlorophenyl)ureidomethyl]benzoylamino}propionic acid]: the IC50 in assay [2] (setting [4]) came to 17 nM; in assay [3], 30 nM.
For `O=C(Nc1nn[nH]n1)c1ccc(CN(C(=O)Nc2ccc(Cl)c(C(F)(F)F)c2)c2ccc(C3CCCCC3)cc2)cc1` [Example 282, 4-[3-(4-Chloro-3-trifluoromethylphenyl)-1-(4-cyclohexylphenyl)ureidomethyl]-N-(2H-tetrazol-5-yl)benzamide] the same measures were 3 nM and 21 nM.
Take `CC(C)(C)C1CCC(N(Cc2ccc(C(=O)Nc3nn[nH]n3)cc2)C(=O)C=Cc2c(Cl)cccc2Cl)CC1` (stereo not drawn) [Example 477, 4-({(4-tert-Butylcyclohexyl)-[3-(2,6-dichlorophenyl)acryloyl]amino}methyl)-N-(2H-tetrazol-5-yl)benzamide]: the figures for the IC50 in assay [2] (setting [4]) and in assay [3] were 224 nM and 464 nM, respectively.
Take `CC(C)(C)C1CCC(N(Cc2ccc(C(=O)NCCC(=O)O)cn2)C(=O)Nc2ccc(OC(F)(F)F)cc2)CC1` (stereo not drawn) [Example 612, 3-({6-[1-(4-tert-Butylcyclohexyl)-3-(4-trifluoromethoxyphenyl)ureidomethyl]pyridine-3-carbonyl}amino)propionic acid]: the IC50 in assay [2] (setting [4]) was 161 nM.
Same read-out and setting: as for `CC(C)(C)[C@H]1CC[C@H](N(Cc2ccc(C(=O)NCCC(=O)O)cc2)Cc2cccc(S(C)(=O)=O)c2)CC1` [Example 613, 3-(4-{[(trans-4-tert-Butylcyclohexyl)-(3-methylsulfonylbenzyl)amino]methyl}benzoylamino)propionic acid], the figure is 578 nM; as for `CC(C)(C)C1CCC(N(Cc2ccc(C(=O)NCCC(=O)O)cc2)C(=O)Nc2ccc(Oc3ccccc3)cc2)CC1` (stereo not drawn) [drawing 1168], 121 nM.
`CC(C)(C)C1CCC(N(Cc2ccc(C(=O)NCCC(=O)O)cc2)C(=O)Nc2ccc(Cl)c(Cl)c2)CC1` (stereo not drawn) [drawing 1169]: the IC50 in assay [2] was 226 nM.
As for `CC(C)c1ccc(NC(=O)N(Cc2ccc(C(=O)NCCC(=O)O)cc2)C2CCC(C(C)(C)C)CC2)cc1` (stereo not drawn) [drawing 1170], the IC50 in assay [2] was determined as 35 nM.
Regarding `CC(C)(C)C1CCC(N(Cc2ccc(C(=O)NCCC(=O)O)cc2)NC(=O)c2ccc(OC(F)(F)F)cc2)CC1` (stereo not drawn) [drawing 1171], in assay [2] (setting [4]), the IC50 stood at 108 nM.
As to `O=C(O)CCNC(=O)c1ccc(CN(C(=O)Nc2ccc(OC(F)(F)F)cc2)C2CCC3CCCCC3C2)cc1` (stereo not drawn) [drawing 1173], the IC50 in assay [2] (setting [4]) amounted to 426 nM.
On the same count and under the same terms, the same measure for `CCCCc1ccc(N(Cc2ccc(C(=O)NCCC(=O)O)cc2)C(=O)Nc2ccc(OC(F)(F)F)cc2)cc1` [drawing 1186]: 13 nM.
